pIC50: −log10 of the molar value.

One assay deals with T1, Human Kv1.5 channels (Homo sapiens, UniProt P22460).
T1 construct: expressed in transfected cells; host or cells: Xenopus laevis oocytes (injection of RNA synthesized in vitro)
T1 sequence (P22460 whole entry): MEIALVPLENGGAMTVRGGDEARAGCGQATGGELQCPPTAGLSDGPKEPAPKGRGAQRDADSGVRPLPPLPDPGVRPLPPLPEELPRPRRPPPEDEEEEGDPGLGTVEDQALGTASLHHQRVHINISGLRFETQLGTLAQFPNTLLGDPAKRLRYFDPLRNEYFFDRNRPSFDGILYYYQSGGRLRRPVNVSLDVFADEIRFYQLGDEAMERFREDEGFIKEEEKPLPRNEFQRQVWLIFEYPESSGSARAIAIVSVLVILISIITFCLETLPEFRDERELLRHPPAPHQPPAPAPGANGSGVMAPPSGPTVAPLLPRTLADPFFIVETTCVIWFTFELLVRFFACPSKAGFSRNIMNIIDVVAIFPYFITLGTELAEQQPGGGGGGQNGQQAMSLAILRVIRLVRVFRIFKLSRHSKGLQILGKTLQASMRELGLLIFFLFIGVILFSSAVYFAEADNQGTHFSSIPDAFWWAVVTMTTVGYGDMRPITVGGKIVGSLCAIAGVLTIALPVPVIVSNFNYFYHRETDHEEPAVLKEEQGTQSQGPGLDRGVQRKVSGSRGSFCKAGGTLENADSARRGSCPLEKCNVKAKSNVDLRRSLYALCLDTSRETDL
The assay is described as follows: Activity on the Kv1.5 channel, two-microelectrode voltage clamp on xenopus oocytes. The format is cell-based. To be noted: human Kv1.5 expressed in Xenopus laevis oocytes; percent inhibition of control current fitted with Hill equation; room temperature; read-out: Kv1.5 IC-50. Here is the method:
Determination of the Activity on the Kv1.5 Channel
Human Kv1.5 channels were expressed in xenopus oocytes. For this purpose, firstly oocytes were isolated from Xenopus laevis and defolliculated. Kv1.5-encoding RNA synthesized in vitro was then injected into these oocytes. After Kv1.5 protein expression for 1-7 days, Kv1.5 currents were measured on the oocytes using the two-microelectrode voltage clamp technique. The Kv1.5 channels were in this case usually activated with voltage jumps lasting 500 ms to 0 mV and 40 mV. A solution of the following composition flowed through the bath: NaCl 96 mM, KCl 2 mM, CaCl2 1.8 mM, MgCl2 1 mM, HEPES 5 mM (titrated to pH 7.4 with NaOH). These experiments were carried out at room temperature. The following were employed for data acquisition and analysis: Geneclamp amplifier (Axon Instruments, Foster City, USA) and MacLab D/A converter and software (ADinstruments, Castle Hill, Australia). The substances of the invention were tested by adding them in various concentrations to the bath solution. The effects of the substances were calculated as percent inhibition of the Kv1.5 control current which was obtained when no substance was added to the solution. The data were then extrapolated using the Hill equation in order to determine the inhibitory concentrations IC50 for the respective substances.
For the compound `N#Cc1ccc(C(OCC2CC2)C(c2ccc(F)cc2)n2ccccc2=O)cc1` (racemic) [Example 11, 4-[1-Cyclopropylmethoxy-2-(4-fluorophenyl)-2-(2-oxo-2H-pyridin-1-yl)ethyl]benzonitrile], the pIC50 is 5.69.
For the compound `O=c1ccccn1C(c1ccc(F)cc1)C(OCC1CC1)c1ccc(Br)cc1` (racemic) [Example 10, 1-[2-(4-Bromophenyl)-2-cyclopropylmethoxy-1-(4-fluorophenyl)ethyl]-1H-pyridin-2-one], the pIC50 was 6.06.
`COc1ccc(CO[C@H](c2ccc(OC)cc2)[C@@H](c2ccc(F)cc2)n2ccccc2=O)cc1` (racemic) [Example 13, 1R′,2R′-1-[1-(4-Fluorophenyl)-2-(4-methoxybenzyloxy)-2-(4-methoxyphenyl)ethyl]-1H-pyridin-2-one]: the pIC50 was 5.35.
`COc1ccc([C@@H](OCC2CC2)[C@@H](c2ccc(F)cc2)n2ccccc2=O)cc1` (racemic) [Example 17, 1R′,2R′-1-[2-Cyclopropylmethoxy-1-(4-fluorophenyl)-2-(4-methoxyphenyl)ethyl]-1H-pyridin-2-one]: the pIC50 was 5.74.
Take `O=c1ccc(F)cn1C(c1ccc(F)cc1)C(OCC1CC1)c1ccc(F)cc1` (racemic) [Example 16, 1-[2-Cyclopropylmethoxy-1,2-bis-(4-fluorophenyl)ethyl]-5-fluoro-1H-pyridin-2-one]: the pIC50 was 5.34.
Take `O=c1ccc(F)cn1C(c1ccccc1)C(OCC1CC1)c1ccccc1` (racemic) [Example 3, 1-(2-Cyclopropylmethoxy-1,2-diphenylethyl)-5-fluoro-1H-pyridin-2-one]: the pIC50 was 6.11.
With `O=c1ccccn1C(c1ccccc1)C(OCC1CC1)c1ccc(Cl)cc1` (racemic) [Example 7, 1-[2-(4-Chlorophenyl)-2-cyclopropylmethoxy-1-phenylethyl]-1H-pyridin-2-one], the pIC50 was 6.74.
For `O=c1ccccn1C(c1ccc(F)cc1)C(OCC1CC1)c1ccc(F)cc1` (racemic) [Example 14, 1-[2-Cyclopropylmethoxy-1,2-bis-(4-fluorophenyl)ethyl]-1H-pyridin-2-one], the pIC50 is 5.85.
Take `O=c1ccccn1[C@H](c1ccccc1)[C@H](OCC1CC1)c1ccccc1` (racemic) [Example 1, 1R′,2R′-1-(2-Cyclopropylmethoxy-1,2-diphenylethyl)-1H-pyridin-2-one]: the pIC50 was 6.42.
Consider `N#Cc1ccc(O[C@H](c2ccc(F)cc2)[C@@H](c2ccc(F)cc2)n2cc(F)ccc2=O)cc1` (racemic) [Example 5, 1R′,2R′-5-Fluoro-1-(2-p-cyanophenoxy-1,2-di-p-fluorophenylethyl)-1H-pyridin-2-one], for which the pIC50 is 4.30 to 4.70.
Take `N#Cc1ccc(COC(c2ccc(Cl)cc2)C(c2ccccc2)n2ccccc2=O)cc1` (racemic) [Example 15, 4-[1-(4-Chlorophenyl)-2-(2-oxo-2H-pyridin-1-yl)-2-phenylethoxymethyl]benzonitrile]: the pIC50 is 5.60.
Take `COc1ccc(CO[C@H](c2ccc(OC)cc2)[C@H](c2ccc(F)cc2)n2ccccc2=O)cc1` (racemic) [Example 18, 1R′,2S′-1-[1-(4-Fluorophenyl)-2-(4-methoxybenzyloxy)-2-(4-methoxyphenyl)ethyl]-1H-pyridin-2-one]: the pIC50 was 5.57.
In the case of `O=c1ccc(F)cn1[C@H](c1ccccc1)[C@H](OCC1CC1)c1ccccc1` (racemic) [Example 12, 1R′,2R′-1-(2-Cyclopropylmethoxy-1,2-diphenylethyl)-5-fluoro-1H-pyridin-2-one], the pIC50 was 5.83.
The same measure, in the same setting: then `O=c1ccc(F)cn1C(c1ccc(F)cc1)C(OC1CC1)c1ccc(F)cc1` (racemic) [Example 6, 1-[2-Cyclopropoxy-1,2-bis-(4-fluorophenyl)ethyl]-5-fluoro-1H-pyridin-2-one], with 5.19; and `O=c1ccccn1[C@H](c1ccc(F)cc1)[C@H](OCC1CC1)c1ccc(F)cc1` (racemic) [Example 8, 1R′,2R′-1-[2-Cyclopropylmethoxy-1,2-bis(4-fluorophenyl)ethyl]-1H-pyridin-2-one], with 6.48.
In the case of `O=c1ccccn1[C@@H](c1ccc(F)cc1)[C@H](OCC1CC1)c1ccc(F)cc1` (racemic) [Example 9, 1R′,2S′-1-[2-Cyclopropylmethoxy-1,2-bis-(4-fluorophenyl)ethyl]-1H-pyridin-2-one], the pIC50 was 6.39.
Regarding `O=c1cccnn1C(c1ccccc1)C(OCC1CC1)c1ccc(Cl)cc1` (racemic) [Example 4, 2-[2-(4-Chlorophenyl)-2-cyclopropylmethoxy-1-phenylethyl]-2H-pyridazin-3-one], the pIC50 was 5.98.
For the compound `COc1ccc([C@@H](OCC2CC2)[C@H](c2ccc(F)cc2)n2ccccc2=O)cc1` (racemic) [Example 2, 1R′,2S′-1-[2-Cyclopropylmethoxy-1-(4-fluorophenyl)-2-(4-methoxy-phenyl)ethyl]-1H-pyridin-2-one], the pIC50 was 5.89.

In another assay the target is Human TASK-1 channels (UniProt O14649). The assay is described as follows: Activity on the TASK-1 channel, two-microelectrode voltage clamp on xenopus oocytes. To be noted: TASK-1 expressed in Xenopus laevis oocytes; percent inhibition of control current fitted with Hill equation; room temperature; read-out: mTask-1 IC-50. The format is cell-based. Here is the method:
Determination of the Activity on the TASK-1 Channel
Human TASK-1 channels were expressed in xenopus oocytes. For this purpose, firstly oocytes were isolated from Xenopus laevis and defolliculated. TASK-1-encoding RNA synthesized in vitro was then injected into these oocytes. After TASK-1 protein expression for 2 days, TASK-1 currents were measured on the oocytes using the two-microelectrode voltage clamp technique. The TASK-1 channels were in this case usually activated with voltage jumps lasting 250 ms to 40 mV. A solution of the following composition flowed through the bath: NaCl 96 mM, KCl 2 mM, CaCl2 1.8 mM, MgCl2 1 mM, HEPES 5 mM (titrated to pH 7.4 with NaOH). These experiments were carried out at room temperature. The following were employed for data acquisition and analysis: Geneclamp amplifier (Axon Instruments, Foster City, USA) and MacLab D/A converter and software (ADinstruments, Castle Hill, Australia). The substances of the invention were tested by adding them in various concentrations to the bath solution. The effects of the substances were calculated as percent inhibition of the TASK-1 control current which was obtained when no substance was added to the solution. The data were then extrapolated using the Hill equation in order to determine the half-maximum inhibitory concentrations (IC50) for the respective substances.
As to `O=c1ccccn1[C@@H](c1ccc(F)cc1)[C@H](OCC1CC1)c1ccc(F)cc1` (racemic) [Example 9, 1R′,2S′-1-[2-Cyclopropylmethoxy-1,2-bis-(4-fluorophenyl)ethyl]-1H-pyridin-2-one], the pIC50 was 5.51.

The values above are taken from patent publication US8044074B2, “Substituted heterocycles, their use as medicament, and pharmaceutical preparations comprising them” (Sanofi-Aventis, priority 2005, dated 2011).
